In paper PMC10252509, “Study on the In Silico Screening and Characterization, Inhibition Mechanisms, Zinc-Chelate Activity, and Stability of ACE-Inhibitory Peptides Identified in Naked Oat Bran Albumin Hydrolysates” (Foods, 2023):
Where no end group is shown, it is not given here.

What was measured:
ACE [1] = test system: ACE; parameters: method as in 2 sources, one per row (each row's own in cited_ref): ref [24] = [24]; PMID 32220144; doi:10.1111/1750-3841.15115; 24. Zheng Y. Wang X. Zhuang Y. Li Y. Shi P.Q. Tian H. Li X.T. Chen X. Isolation of novel ACE-inhibitory peptide from naked oat globulin hydrolysates in silico approach: Molecular docking, in vivo anti ||| ref [4],[35] = [4]; doi:10.1016/j.lwt.2022.114008; 4. Renjuan L. Xiuli Z. Liping S. Yongliang Z. Identification, in silico screening, and molecular docking of novel ACE inhibitory peptides isolated from the edible symbiot Boletus griseus-Hypomyces chr || [35]; doi:10.1016/j.lwt.2022.113196; 35. Wei G. Zhao Q. Wang D. Fan Y. Shi Y. Huang A. Novel ACE inhibitory, antioxidant and α-glucosidase inhibitory peptides identified from fermented rubing cheese through peptidomic and molecular docki; conditions: literature comparison; ref [4],[35]; read-out: ACE inhibition IC50; cited from earlier work
[2] = Zinc solubility of peptide-Zn complexes during simulated gastrointestinal digestion; conditions: intestinal phase, from 120 to 240 min; PAR method
[3] = Zn-chelating ability (4-(2-Pyridinazo)-resorcinol colorimetric method); type: physicochemical; conditions: 350 μg sample, zinc sulfate 0.25 mmol/L, HEPES-KOH, DTT, 37 °C, 12 min; PAR method, 500 nm; reduction of zinc ions per mass of sample; mean ± SD, n at least 3
Procedure: NOBAH peptides (350 μg), 0.5 mL zinc sulfate solution (0.25 mmol/L), 0.5 mL DTT (8 mmol/L), 1 mL HEPES-KOH buffer (100 μmol/L), and 8 mL dH2O were mixed thoroughly. After stirring at 37 °C and 175 r/min for 12 min, 1 mL of reaction solution was sucked out and used for zinc concentration determination using the 4-(2-Pyridinazo)-resorcinol method. The standard regression curve of zinc concentration (x, μg/mL) with the absorbance at 500 nm (y) was y = 0.0901n(x) + 0.1012, R^2 = 0.9802 [27]. The zinc chelation rate of the sample was defined as the reduction of zinc ions in the reaction solution per mass of the sample (mg/g).
Amino acid sequence identification was conducted on a Q Exactive hybrid quadrupole orbitrap mass spectrometer (Thermo Fisher, Bremen, Germany) according to the description of Li et al.. Peak-Studio-7.5-De-Novo™ software (Bioinformatics Solutions, Inc., Waterloo, ON, Canada) was employed to analyze data from the mass spectrometer. The National Center for Biotechnology Information Database (Bethesda, MD, USA) was used for the verification of the obtained sequences. The PAR colorimetric method was employed to measure the Zn-chelating ability of the obtained sequences. Potential antihypertensive effects were predicted using the database AHTPDB [29]. […] Moreover, the physicochemical characteristics of the obtained peptides were analyzed with the database AHTPDB.

ACE [4] = target: T1, ACE (Oryctolagus cuniculus, UniProt P12822); experiment: ACE inhibition capacity (HHL substrate, hippuric acid at 228 nm); type: biochemical; conditions: synthesized peptide; ACE 25 mU, HHL 8.3 mmol/L, 37 °C, 60 min, absorbance 228 nm; from regression of inhibition vs concentration; n at least 3; read-out: ACE-inhibitory activity (IC50)
T1 construct: purchased Sigma (St. Louis, MO, USA)
T1 sequence (P12822 34-1310): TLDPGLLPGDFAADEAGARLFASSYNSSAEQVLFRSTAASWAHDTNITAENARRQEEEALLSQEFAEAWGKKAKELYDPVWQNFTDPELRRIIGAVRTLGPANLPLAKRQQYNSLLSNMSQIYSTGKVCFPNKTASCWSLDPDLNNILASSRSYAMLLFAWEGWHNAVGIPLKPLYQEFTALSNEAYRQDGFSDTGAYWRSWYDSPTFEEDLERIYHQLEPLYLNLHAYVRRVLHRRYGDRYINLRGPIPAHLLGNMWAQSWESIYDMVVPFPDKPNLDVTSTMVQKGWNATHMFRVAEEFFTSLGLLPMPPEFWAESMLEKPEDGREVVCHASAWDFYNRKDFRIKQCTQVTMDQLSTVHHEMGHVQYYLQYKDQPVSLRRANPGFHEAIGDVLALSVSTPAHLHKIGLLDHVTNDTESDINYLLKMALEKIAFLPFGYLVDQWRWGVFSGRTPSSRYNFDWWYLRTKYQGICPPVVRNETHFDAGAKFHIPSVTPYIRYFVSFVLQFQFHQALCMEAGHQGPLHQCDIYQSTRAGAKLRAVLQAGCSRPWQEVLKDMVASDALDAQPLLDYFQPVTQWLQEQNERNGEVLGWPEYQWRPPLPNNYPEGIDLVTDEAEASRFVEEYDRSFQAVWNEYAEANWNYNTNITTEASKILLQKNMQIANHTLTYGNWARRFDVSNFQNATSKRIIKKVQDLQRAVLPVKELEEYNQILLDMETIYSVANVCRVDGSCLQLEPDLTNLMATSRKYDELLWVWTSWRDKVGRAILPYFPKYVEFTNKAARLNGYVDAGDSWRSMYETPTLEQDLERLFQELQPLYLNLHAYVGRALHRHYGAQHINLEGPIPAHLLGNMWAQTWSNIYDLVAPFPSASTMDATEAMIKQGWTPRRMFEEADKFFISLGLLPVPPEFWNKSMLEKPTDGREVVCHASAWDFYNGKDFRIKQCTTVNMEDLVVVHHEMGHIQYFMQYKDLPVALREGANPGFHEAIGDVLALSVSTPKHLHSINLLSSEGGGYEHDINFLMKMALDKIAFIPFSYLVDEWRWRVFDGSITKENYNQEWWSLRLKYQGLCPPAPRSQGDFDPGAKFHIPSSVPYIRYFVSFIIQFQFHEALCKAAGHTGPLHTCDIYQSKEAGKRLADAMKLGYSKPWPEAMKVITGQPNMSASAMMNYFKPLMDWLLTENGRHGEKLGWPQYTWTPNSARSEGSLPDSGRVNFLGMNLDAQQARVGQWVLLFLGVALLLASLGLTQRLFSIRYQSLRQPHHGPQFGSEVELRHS
Procedure: Briefly, ACE (25 mU) was pre-incubated at 37 °C for 10 min. Then, ACE (75 µL), 225 µL of HHL (8.3 mmol/L), and peptide solution (75 µL) were mixed and stirred at 75 r/min and 37 °C for 60 min [28]. The reaction was stopped through the addition of 0.375 mL of HCl (1 mol/L). Next, 2.1 mL of ethyl acetate was added to extract the produced hippuric acid. After centrifugation at 14,000× g for 150 s, 1 mL of the upper solution (ethyl acetate extraction) was transferred into a glass test tube and heated at 120 °C for 32 min. Then, deionized water (1 mL) was added and determined at 228 nm. The control group was subjected to the same procedures but without samples. The inhibition ability of the samples toward ACE was defined as the percentage of the difference in absorbance at 228 nm between the sample and control compared to the absorbance of the control at 228 nm. The concentration of peptides needed to inhibit half of ACE activity was defined as IC50.

| IC50 (ACE [4]) | Compound | IC50 (ACE [1]) | further results |
| --- | --- | --- | --- |
|  | LFRPE | 11.3 µM |  |
|  | QPHQPL [peptide identified in rubing cheese] | 464 µM |  |
|  | O=C([O-])[C@H](O)[C@@H](O)[C@H](O)[C@H](O)CO.O=C([O-])[C@H](O)[C@@H](O)[C@H](O)[C@H](O)CO.[Zn+2] [zinc gluconate, Zinc gluconate] |  | Zinc solubility compared with zinc sulfate [2]: higher zinc solubility than that of zinc sulfate |
|  | GTTGGMGT [peptide identified in NOBAH-6-D] |  | Zinc chelating capacity [3]: 3.36 ± 0.16 e mg/g |
| 243 µM | QYVPF [QYVPF, Gln-Tyr-Val-Pro-Phe] |  |  |
| 322 µM | GYHGH [GYHGH, Gly-Tyr-His-Gly-His] |  |  |
